The supplement of paper PMC13380429

Tests used:
Settings in all cases: 72 h
Caco-2 [1] = test: relative viability EC50 (midpoint between 100% and the lowest measured viability); higher = less toxic
Calu-3 [2] = test: as above
Vero E6 [3] = test: as above
Caco-2 [4] = test: cell viability relative to DMSO; higher = less toxic
Calu-3 [5] = test: as above
Vero E6 [6] = test: as above
Caco-2 [7] = test: drug sensitivity score (DSS) for viability; higher = more toxic; extreme values may be limits of the assay
Calu-3 [8] = test: as above
Vero E6 [9] = test: as above
U2OS [10] = test: relative viability EC50 (midpoint between 100% and the lowest measured viability); higher = less toxic
HepG2 [11] = test: cell viability relative to DMSO; higher = less toxic
U2OS [12] = test: as above
HepG2 [13] = test: drug sensitivity score (DSS) for viability; higher = more toxic; extreme values may be limits of the assay
U2OS [14] = test: as above
HepG2 [15] = test: relative viability EC50 (midpoint between 100% and the lowest measured viability); higher = less toxic

Row | Compound | relative viability EC50 (Caco-2 [1]) [µM] | relative viability EC50 (Calu-3 [2]) [µM] | relative viability EC50 (Vero E6 [3]) [µM] | cell viability (Caco-2 [4]; 1 nM) [%] | cell viability (Caco-2 [4]; 10 nM) [%] | cell viability (Caco-2 [4]; 100 nM) [%] | cell viability (Caco-2 [4]; 1000 nM) [%] | cell viability (Caco-2 [4]; 10000 nM) [%] | cell viability (Calu-3 [5]; 1 nM) [%] | cell viability (Calu-3 [5]; 10 nM) [%] | cell viability (Calu-3 [5]; 100 nM) [%] | cell viability (Calu-3 [5]; 1000 nM) [%] | cell viability (Calu-3 [5]; 10000 nM) [%] | cell viability (Vero E6 [6]; 1 nM) [%] | cell viability (Vero E6 [6]; 10 nM) [%] | cell viability (Vero E6 [6]; 100 nM) [%] | cell viability (Vero E6 [6]; 1000 nM) [%] | cell viability (Vero E6 [6]; 10000 nM) [%] | drug sensitivity score (Caco-2 [7]) | drug sensitivity score (Calu-3 [8]) | drug sensitivity score (Vero E6 [9]) | relative viability EC50 (U2OS [10]) [µM] | cell viability (HepG2 [11]; 1 nM) [%] | cell viability (HepG2 [11]; 10 nM) [%] | cell viability (HepG2 [11]; 100 nM) [%] | cell viability (HepG2 [11]; 1000 nM) [%] | cell viability (HepG2 [11]; 10000 nM) [%] | cell viability (U2OS [12]; 1 nM) [%] | cell viability (U2OS [12]; 10 nM) [%] | cell viability (U2OS [12]; 100 nM) [%] | cell viability (U2OS [12]; 1000 nM) [%] | cell viability (U2OS [12]; 10000 nM) [%] | drug sensitivity score (HepG2 [13]) | drug sensitivity score (U2OS [14]) | relative viability EC50 (HepG2 [15]) [µM]
1 | CC(=O)SC[C@@H](C)C(=O)N1CCC[C@H]1C(=O)N[C@@H](Cc1ccccc1)C(=O)O [alacepril] | > 10 | > 10 | > 10 | 102 | 101 | 94.7 | 108 | 104 | 106 | 108 | 96.9 | 103 | 99.4 | 98.3 | 101 | 93 | 98.8 | 99.4 | 0 | 0 | 0 |  |  |  |  |  |  |  |  |  |  |  |  |  | 
2 | CCC1(c2ccc(N)cc2)CCC(=O)NC1=O (centres undefined) [aminoglutethimide] | > 10 | > 10 | > 10 | 109 | 97.2 | 105 | 112 | 111 | 112 | 95.6 | 103 | 93.2 | 102 | 97.6 | 101 | 91.3 | 86.9 | 100 | 0 | 0 | 0 | > 10 | 90.7 | 96 | 85.3 | 77.2 | 71.8 | 102 | 105 | 105 | 101 | 98.6 | 4.8 | 0 | 
3 | COc1ccc(-c2cc(=S)ss2)cc1 [anethole-trithione] | > 10 | > 10 | > 10 | 99.3 | 96.5 | 100 | 91.9 | 92.2 | 97.1 | 95.9 | 111 | 108 | 97.3 | 107 | 105 | 95.9 | 102 | 106 | 0 | 0 | 0 | > 10 |  |  |  |  |  | 100 | 98.9 | 99.8 | 97.6 | 103 |  | 0 | 
4 | CN/C(=N\CCSCc1nc[nH]c1C)NC#N [cimetidine] | > 10 | > 10 | > 10 | 99.8 | 98.7 | 98.7 | 106 | 88.1 | 104 | 106 | 102 | 101 | 88.6 | 94.5 | 91.7 | 96.9 | 91.3 | 90 | 0 | 0 | 0 | > 10 |  |  |  |  |  | 101 | 106 | 100 | 104 | 96.4 |  | 0 | 
5 | C[C@]12CCC(=O)C=C1CC[C@@H]1[C@@H]2CC[C@@]2(C)[C@H]1CC[C@]2(O)C(=O)CO [cortodoxone] | > 10 | > 10 | > 10 | 89.6 | 95.5 | 100 | 86.5 | 103 | 106 | 91 | 95.2 | 97.8 | 104 | 108 | 108 | 105 | 97.6 | 96.8 | 0 | 0 | 0 | > 10 |  |  |  |  |  | 92.9 | 95.2 | 96.6 | 99.6 | 98.7 |  | 0 | 
6 | CN(C)/N=N/c1[nH]cnc1C(N)=O [dacarbazine] | > 10 | > 10 | > 10 | 100 | 97.8 | 97 | 103 | 93.4 | 91.9 | 102 | 95.9 | 110 | 95.7 | 98.6 | 94.2 | 94.4 | 97.2 | 100 | 0 | 0 | 0 | > 10 | 106 | 90.7 | 99.2 | 90.5 | 72.7 | 97.7 | 99.2 | 94.9 | 102 | 92.7 | 2.3 | 0 | 
7 | Cc1cc(C)c(Nc2ccnc(Nc3ccc(C#N)cc3)n2)c(C)c1 [dapivirine] | 1.49 |  |  | 104 | 94.5 | 99.3 | 86 | 47.8 | 108 | 100 | 97.1 | 100 | 74.4 | 93.7 | 101 | 92.9 | 94.7 | 61.5 | 4.9 | 1 | 2.8 | 3.05 | 107 | 120 | 95.4 | 103 | 17.3 | 97.7 | 100 | 101 | 99 | 40.3 | 4.3 | 3.4 | 3.38
8 | Oc1ccc([C@@H]2Oc3ccc(O)cc3[C@@H]3CCC[C@@H]32)cc1 [erteberel] | > 10 | > 10 | > 10 | 95.4 | 94.4 | 96.7 | 92.8 | 86.8 | 108 | 109 | 108 | 98.3 | 102 | 94.8 | 99 | 92.5 | 99.4 | 87.8 | 0 | 0 | 0 | > 10 | 102 | 101 | 97.6 | 108 | 52.4 | 97.5 | 95.6 | 102 | 98.9 | 82.9 | 2 | 0.5 | 
9 | Nc1nc(=O)n([C@H]2C[C@H](O)[C@@H](CO)O2)cc1F [fdcyd] | > 10 |  |  | 93.4 | 106 | 94.9 | 113 | 86.1 | 85.1 | 108 | 84.1 | 85.5 | 68.3 | 99.3 | 105 | 90.7 | 66.4 | 54.9 | 0.1 | 3.4 | 7 | > 10 | 117 | 89.8 | 60.1 | 55.2 | 49.8 | 102 | 106 | 95.8 | 104 | 86.2 | 14.8 | 0.1 | 0.0346
10 | COC(=O)[C@H](CC(C)C)NC(=O)[C@@H](N)CC(C)C [leucylleucine-methyl-ester] | > 10 | > 10 |  | 98.1 | 102 | 94.5 | 104 | 103 | 98.1 | 107 | 86.9 | 99.6 | 98.5 |  |  |  |  |  | 0 | 0 |  |  |  |  |  |  |  |  |  |  |  |  |  |  | 
11 | COc1ccc(C(=O)c2ccccc2)c(O)c1 [oxybenzone] | > 10 |  |  | 99.6 | 94.4 | 98.9 | 101 | 97.8 |  |  |  |  |  |  |  |  |  |  | 0 |  |  | > 10 | 112 | 112 | 98.9 | 114 | 103 | 103 | 103 | 101 | 98.2 | 100 | 0 | 0 | > 10
12 | CCCC(C)C1(CC)C(=O)NC(=O)NC1=O (centres undefined) [pentobarbital] | > 10 | > 10 | > 10 | 94.8 | 90.8 | 88.3 | 89.1 | 93.9 | 106 | 90.3 | 109 | 107 | 94.1 | 102 | 94.4 | 96.5 | 106 | 100 | 0.8 | 0 | 0 | > 10 |  |  |  |  |  | 104 | 97.1 | 99.7 | 93.9 | 99.1 |  | 0 | 
13 | C[C@]12CC[C@H](O)C[C@H]1CC[C@@H]1[C@@H]2CC[C@]2(C)[C@@H](c3ccc(=O)oc3)C[C@H]3O[C@]132 [resibufogenin] | 2.59 | 3.09 | 0.426 | 96.3 | 98.8 | 106 | 94.7 | 25.1 | 102 | 94.8 | 106 | 99.4 | 45.7 | 106 | 101 | 102 | 11.3 | 2.1 | 4.9 | 3 | 16 | 3.23 | 115 | 100 | 109 | 90.5 | 63.6 | 97 | 104 | 98.9 | 101 | 6.5 | 3.2 | 5.1 | 
14 | C=C[C@]1(C)C[C@@H](OC(=O)CS[C@@H]2C[C@H]3CC[C@@H](C2)N3C)[C@]2(C)[C@H](C)CC[C@]3(CCC(=O)[C@H]32)[C@@H](C)[C@@H]1O [retapamulin] | > 10 | > 10 | > 10 | 94.7 | 98.2 | 112 | 92.8 | 98.8 | 107 | 98.5 | 104 | 98.2 | 97.8 | 94.9 | 101 | 90.4 | 93.9 | 91.5 | 0 | 0 | 0 | > 10 | 96.9 | 101 | 89.4 | 85.9 | 74 | 103 | 98.4 | 102 | 101 | 99.1 | 2.6 | 0 | 
15 | C#CCN(C)[C@H](C)Cc1ccccc1 [selegiline] |  |  |  |  |  |  |  |  |  |  |  |  |  |  |  |  |  |  |  | 0 | 0 |  |  |  |  |  |  |  |  |  |  |  | 0 | 0 | 
16 | O=C(NN1C(=O)[C@@H]2[C@@H]3C=C[C@@H]([C@H]4C[C@@H]34)[C@@H]2C1=O)c1ccc(C(F)(F)F)cc1 [tecovirimat] | > 10 | > 10 | > 10 | 109 | 104 | 105 | 101 | 94.2 | 99.7 | 90.3 | 103 | 98.8 | 100 | 98.5 | 104 | 93 | 95.3 | 101 | 0 | 0 | 0 | > 10 |  |  |  |  |  | 107 | 107 | 107 | 99.6 | 104 |  | 0 | 
17 | Cc1ccc(S(=O)(=O)NC(=O)NN2CCCCCC2)cc1 [tolazamide] | > 10 | > 10 | > 10 | 95.6 | 95 | 102 | 93.8 | 89.7 | 92.2 | 96.2 | 88 | 79.5 | 93.3 | 98.9 | 86.3 | 95.5 | 98.3 | 107 | 0 | 0 | 0 | > 10 |  |  |  |  |  | 100 | 97 | 97 | 99.2 | 103 |  | 0 | 
